Experimental data taken from article PMC9939733 (The Journal of Biological Chemistry, 2023).
Changes are numbered by the printed parent chain. Counter-ions that a name gives are not always drawn.

Experiments:
Format in all cases: biochemical
R172K IDH2 [1] = target: T1, R172K IDH2 (Homo sapiens, UniProt P48735, R172K); assay: Absorbance assay (NADPH consumption), substrate turnover in the absence of 2OG; settings: no 2OG; 1.0 mM test compound, 0.03 μM R172K IDH2, 50 μM NADPH; 2OG = 100
T1 construct: made in house; host or cells: Sf21 insect cells (cell pellets prepared at Evotec)
T1 sequence (P48735 40-452 R172K): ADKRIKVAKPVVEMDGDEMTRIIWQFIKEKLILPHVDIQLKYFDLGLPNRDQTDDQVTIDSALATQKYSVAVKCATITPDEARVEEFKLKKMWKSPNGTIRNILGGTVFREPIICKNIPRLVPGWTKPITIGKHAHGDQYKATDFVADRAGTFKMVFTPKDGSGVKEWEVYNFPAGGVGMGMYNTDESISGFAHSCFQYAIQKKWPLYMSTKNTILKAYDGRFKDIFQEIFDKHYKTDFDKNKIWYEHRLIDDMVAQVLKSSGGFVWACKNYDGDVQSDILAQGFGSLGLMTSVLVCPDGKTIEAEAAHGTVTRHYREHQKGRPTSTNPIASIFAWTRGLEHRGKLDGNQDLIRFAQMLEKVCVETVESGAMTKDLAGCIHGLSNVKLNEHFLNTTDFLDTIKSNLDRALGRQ
How it was run: (§1)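 Reactions were run as technical quadruplicates. Compounds were dispensed with a simultaneous pipettor, and each assay was started by adding reagent from a bulk dispenser.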

R140Q IDH2 [2] = target: T2, R140Q IDH2 (Homo sapiens, UniProt P48735, R140Q); assay: as above; settings: no 2OG; 6.0 mM test compound, 0.03 μM R140Q IDH2, 50 μM NADPH; 2OG = 100
T2 construct: made in house; host or cells: Sf21 insect cells (cell pellets prepared at Evotec)
T2 sequence (P48735 40-452 R140Q): T1 sequence (P48735 40-452 R172K) with R101Q, K133R
How it was run: as §1

R132H IDH1 [3] = target: T3, R132H IDH1 (Homo sapiens, UniProt O75874, R132H); assay: Absorbance assay, variant activity in the presence of equimolar 2OG (inhibition screen); set-up: made in house; host or cells: Escherichia coli BL21(DE3) pLyS; settings: […] 2OG and […] test compound, 0.03 μM R132H IDH1, 50 μM NADPH
T3 sequence (O75874 whole entry R132H): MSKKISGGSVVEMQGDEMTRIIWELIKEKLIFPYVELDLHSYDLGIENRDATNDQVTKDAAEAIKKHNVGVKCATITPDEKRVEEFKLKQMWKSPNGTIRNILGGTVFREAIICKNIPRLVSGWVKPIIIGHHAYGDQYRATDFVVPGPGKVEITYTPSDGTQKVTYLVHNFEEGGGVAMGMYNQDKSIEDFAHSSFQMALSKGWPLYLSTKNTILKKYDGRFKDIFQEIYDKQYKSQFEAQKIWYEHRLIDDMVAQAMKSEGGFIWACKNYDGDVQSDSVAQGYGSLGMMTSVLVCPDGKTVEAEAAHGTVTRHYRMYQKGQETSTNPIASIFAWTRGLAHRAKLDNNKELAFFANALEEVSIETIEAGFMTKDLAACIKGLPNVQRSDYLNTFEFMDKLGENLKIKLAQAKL
How it was run: as §1

R172K IDH2 [4] = target: T1, R172K IDH2; assay: as above; settings: for activity [%] (%-substrate conversion after 20 min incubation): 1.0 mM 2OG and 1.0 mM test compound, 0.03 μM R172K IDH2, 50 μM NADPH
How it was run: as §1

R140Q IDH2 [5] = target: T2, R140Q IDH2; assay: as above; settings: 6.0 mM 2OG and 6.0 mM test compound, 0.03 μM R140Q IDH2, 50 μM NADPH
How it was run: as §1

WT IDH1 [6] = target: T4, WT IDH1 (Homo sapiens, UniProt O75874); assay: Absorbance assay, substrate activity in the absence of DL-isocitrate; settings: no DL-isocitrate; […] test compound, 75 μM NADP+, 2.0 nM WT IDH1; compared to DL-isocitrate
T4 construct: made in house; host or cells: Escherichia coli BL21(DE3) pLyS
T4 sequence (O75874 whole entry): as the sequence (O75874 whole entry R132H) above, with H132R counted along it
How it was run: as §1

WT IDH2 [7] = target: T5, WT IDH2 (Homo sapiens, UniProt P48735); assay: as above; settings: no DL-isocitrate; […] test compound, 75 μM NADP+, 2.0 nM WT IDH2; compared to DL-isocitrate
T5 construct: made in house; host or cells: Sf21 insect cells (cell pellets prepared at Evotec)
T5 sequence (P48735 40-452): T1 sequence (P48735 40-452 R172K) with K133R
How it was run: as §1

WT IDH1 [8] = target: T4, WT IDH1; assay: Absorbance assay, WT activity in the presence of equimolar DL-isocitrate (inhibition); settings: […] isocitrate and […] test compound, 75 μM NADP+, 2.0 nM WT IDH1
How it was run: as §1

WT IDH2 [9] = target: T5, WT IDH2; assay: as above; settings: […] isocitrate and […] test compound, 75 μM NADP+, 2.0 nM WT IDH2
How it was run: as §1

R132H IDH1 [10] = target: T3, R132H IDH1; assay: Absorbance assay (NADPH consumption), substrate turnover in the absence of 2OG; set-up: made in house; host or cells: Escherichia coli BL21(DE3) pLyS; settings: no 2OG; […] test compound, 0.03 μM R132H IDH1, 50 μM NADPH; 2OG = 100
How it was run: as §1

Row | activity [%] (%-substrate conversion after 20 min incubation) (R172K IDH2 [1]) | activity [%] (%-substrate conversion after 20 min incubation) (R140Q IDH2 [2]) | activity [%] (%-substrate conversion after 20 min incubation) (R132H IDH1 [3]) | activity [%] (%-substrate conversion after 20 min incubation) (R172K IDH2 [4]) | activity [%] (%-substrate conversion after 20 min incubation) (R140Q IDH2 [5]) | activity [%] (%-substrate conversion after 20 min incubation) (WT IDH1 [6]) | activity [%] (%-substrate conversion after 20 min incubation) (WT IDH2 [7]) | activity [%] (%-substrate conversion after 20 min incubation) (WT IDH1 [8]) | activity [%] (%-substrate conversion after 20 min incubation) (WT IDH2 [9]) | activity [%] (%-substrate conversion after 20 min incubation) (R132H IDH1 [10]) | inhibition (R172K IDH2 [4]; equimolar 2OG (1.0 mM)) | Structure (SMILES)
1 | < 10 | < 10 | 93 ± 3 | 98 ± 3 | 123 ± 5 | < 10 | < 10 | 103 ± 4 | 101 ± 3 | < 10 | – | O=C(O)CC(Cc1ccccc1)C(=O)O (racemic) [DL-benzylsuccinic acid]
2 | < 10 | < 10 | 94 ± 8 | 107 ± 3 | 108 ± 7 | < 10 | < 10 | 106 ± 4 | 96 ± 5 | < 10 | – | CCOC(=O)/C=C/C(=O)O [mono-ethyl fumarate]
3 | < 10 | < 10 | 51 ± 5 | 54 ± 1 | 91 ± 5 | < 10 | < 10 | 88 ± 1 | 85 ± 1 | < 10 | ~ 50% | O=C(O)C(=O)CS [mercaptopyruvic acid]
4 | < 10 | < 10 | 98 ± 1 | 98 ± 4 | 106 ± 2 | < 10 | < 10 | 102 ± 1 | 98 ± 1 | < 10 | – | O=C(O)[C@@H]1CCCN1 [L-proline]
5 | < 10 | < 10 | 105 ± 3 | 104 ± 5 | 116 ± 9 | < 10 | < 10 | 105 ± 2 | 100 ± 2 | < 10 | – | C/C(=C\C(=O)O)C(=O)O [mesaconic acid]
6 | < 10 | < 10 | 108 ± 5 | 99 ± 6 | 105 ± 6 | < 10 | < 10 | 104 ± 2 | 99 ± 2 | < 10 | – | O=CC(=O)O [glyoxylic acid]
7 | < 10 | < 10 | 85 ± 3 | 91 ± 2 | 61 ± 11 | < 10 | < 10 | 104 ± 4 | 100 ± 3 | < 10 | – | COC(=O)/C=C/C(=O)OC [dimethyl fumarate]
8 | < 10 | < 10 | 100 ± 4 | 89 ± 2 | 124 ± 11 | < 10 | < 10 | 97 ± 2 | 97 ± 3 | < 10 | – | O=C(O)CCC(=O)O [succinic acid]
9 | < 10 | < 10 | 86 ± 3 | 87 ± 6 | 112 ± 13 | < 10 | < 10 | 98 ± 1 | 97 ± 1 | < 10 | – | O=C(O)/C=C/C(=O)O [fumaric acid]
10 | < 10 | < 10 | 104 ± 4 | 99 ± 4 | 91 ± 5 | < 10 | < 10 | 109 ± 4 | 100 ± 1 | < 10 | – | O=C(O)CC(S)C(=O)O (centres unmarked) [2-mercaptosuccinic acid]
